US8097617B2, “Organic compounds” (Novartis AG, priority 2006, dated 2012)

The compounds below were run against T1, human DPP-IV (Homo sapiens, UniProt P27487) (assay: DPP-IV inhibitory activity assay, fluorogenic substrate H-Gly-Pro-AMC). Details: recombinant human DPP-IV (aa 39-766), substrate H-Gly-Pro-AMC 10 μM, room temperature, 1 hour; read-out: IC50 (inhibitory activity to human DPP-4).
T1 construct: Human DPP-IV consisting of amino acids 39 to 766 followed by a C-terminal Streptavidin-tag; Streptavidin-tag (C); made in house
T1 sequence (P27487 39-766): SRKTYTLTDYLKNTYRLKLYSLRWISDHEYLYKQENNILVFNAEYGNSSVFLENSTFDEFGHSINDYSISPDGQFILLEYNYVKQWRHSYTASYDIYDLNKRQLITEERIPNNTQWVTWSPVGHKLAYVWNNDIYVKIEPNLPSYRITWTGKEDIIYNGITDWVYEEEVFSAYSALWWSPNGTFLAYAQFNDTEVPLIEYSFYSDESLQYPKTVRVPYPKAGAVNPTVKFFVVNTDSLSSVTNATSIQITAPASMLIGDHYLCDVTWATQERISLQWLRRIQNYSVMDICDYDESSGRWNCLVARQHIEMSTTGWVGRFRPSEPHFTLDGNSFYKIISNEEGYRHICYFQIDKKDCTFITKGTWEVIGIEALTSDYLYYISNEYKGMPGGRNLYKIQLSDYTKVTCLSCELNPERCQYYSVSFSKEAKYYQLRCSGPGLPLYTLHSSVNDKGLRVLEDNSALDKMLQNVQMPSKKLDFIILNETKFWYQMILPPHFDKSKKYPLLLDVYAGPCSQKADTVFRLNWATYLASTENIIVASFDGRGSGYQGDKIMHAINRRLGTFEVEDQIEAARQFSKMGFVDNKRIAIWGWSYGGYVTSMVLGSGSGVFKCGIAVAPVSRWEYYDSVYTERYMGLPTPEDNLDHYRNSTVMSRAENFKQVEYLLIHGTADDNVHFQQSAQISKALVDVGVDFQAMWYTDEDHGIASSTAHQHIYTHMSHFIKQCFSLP
Type: biochemical
Method: Some of Compounds 1 to 40 were tested for their inhibitory activity to human DPP-IV.
Human DPP-IV consisting of amino acids 39 to 766 followed by a C-terminal Streptavidin-tag was expressed using the baculovirus system and purified to >80% purity. The enzyme was stored in 25 mM Tris buffer, pH 9.0, containing 300 mM NaCl at −80° C.
The fluorogenic substrates H-Gly-Pro-AMC was purchased from Bachem AG (Bubendorf, Switzerland). The substrate was kept as a 5 mM stock solution in DMSO at −20° C. All other chemicals were purchased from Sigma (Buchs, Switzerland).
The assay buffer for the DPP-IV reaction was 25 mM Tris/HCl, pH 7.5, containing 140 mM NaCl, 10 mM KCl and 0.05% (w/v) CHAPS.
The test compounds were dissolved in 90% DMSO/10% H2O (v/v). Serial dilutions of the compounds from 3 mM to 0.03 μM in 90% DMSO/10% H2O (v/v) followed by a 1:33.3 dilution in assay buffer was done in 96-well polypropylene plates using a CyBio Dilus 8-channel pipettor (CyBio AG, Jena, Germany) with tip change after each pipetting step. The compound solutions as well as the substrate and the enzyme solutions were transferred to the assay plates (384-well black Cliniplate; cat. no. 95040020 Labsystems Oy, Finland) by means of a CyBi-Well 96-channel pipettor (CyBio AG, Jena, Germany).
Enzyme kinetics were measured by mixing 10 μl of a 3-fold concentrated substrate solution in assay buffer (final substrate concentration was 10 μM) with 10 μl of the corresponding compound solution. The reactions were initiated by addition of 10 μl of a 3-fold concentrated solution of the enzyme in assay buffer. Final enzyme (active site) concentrations in the assay was […] for DPP-IV. Fluorescence product (AMC) formation was monitored for 1 hour at room temperature at 35 second intervals by measuring the fluorescence emission at 500 nm using an exitation wavelength of 350 nm in a TECAN Ultra fluorescence reader (TECAN, Maennedorf, Switzerland). The fluorescence in each well was excited by one flash per measurement. The Origin software package (Origin 7.5 Mircocal, Northampton, Mass., USA) was used to generate all graphs and to perform the IC50 calculations.

IC50 [nM]	SMILES
25	CN1CCC(C(=O)Nc2nnc3cc(CN)c(-c4ccc(Cl)cc4Cl)cn23)CC1 [Compound 18b, 1-Methyl-piperidine-4-carboxylic acid [7-aminomethyl-6-(2,4-dichloro-phenyl)-[1,2,4]triazolo[4,3-a]pyridin-3-yl]-amide]
22	NCc1cc2ncc(C(=O)N3CCOCC3)n2cc1-c1ccc(Cl)cc1Cl [Compound 27a, [7-Aminomethyl-6-(2,4-dichloro-phenyl)-imidazo[1,2-a]pyridin-3-yl]-morpholin-4-yl-methanone]
23	COCCN(C)c1cnc2cc(CN)c(-c3ccc(Cl)cc3Cl)cn12 [Compound 7, [7-Aminomethyl-6-(2,4-dichloro-phenyl)-imidazo[1,2-a]pyridin-3-yl]-(2-methoxy-ethyl)-methyl-amine]
23	NCc1cc2ncc(-c3ccc(F)c(F)c3)n2cc1-c1ccc(Cl)cc1Cl [Compound 4d, C-[6-(2,4-Dichloro-phenyl)-3-(3,4-difluoro-phenyl)-imidazo[1,2-a]pyridin-7-yl]-methylamine]
